The source made the active and inactive calls.
Legend:
[1] = target: T1, Short transient receptor potential channel 4 (Mus musculus, UniProt Q9QUQ5); test: calcium entry via TRPC4 opening agents – cell-based, HEK293 TRPC4/mu-opioid, Fluo-4 calcium, dose response (AID 434937); type: functional
T1 sequence (Q9QUQ5 whole entry): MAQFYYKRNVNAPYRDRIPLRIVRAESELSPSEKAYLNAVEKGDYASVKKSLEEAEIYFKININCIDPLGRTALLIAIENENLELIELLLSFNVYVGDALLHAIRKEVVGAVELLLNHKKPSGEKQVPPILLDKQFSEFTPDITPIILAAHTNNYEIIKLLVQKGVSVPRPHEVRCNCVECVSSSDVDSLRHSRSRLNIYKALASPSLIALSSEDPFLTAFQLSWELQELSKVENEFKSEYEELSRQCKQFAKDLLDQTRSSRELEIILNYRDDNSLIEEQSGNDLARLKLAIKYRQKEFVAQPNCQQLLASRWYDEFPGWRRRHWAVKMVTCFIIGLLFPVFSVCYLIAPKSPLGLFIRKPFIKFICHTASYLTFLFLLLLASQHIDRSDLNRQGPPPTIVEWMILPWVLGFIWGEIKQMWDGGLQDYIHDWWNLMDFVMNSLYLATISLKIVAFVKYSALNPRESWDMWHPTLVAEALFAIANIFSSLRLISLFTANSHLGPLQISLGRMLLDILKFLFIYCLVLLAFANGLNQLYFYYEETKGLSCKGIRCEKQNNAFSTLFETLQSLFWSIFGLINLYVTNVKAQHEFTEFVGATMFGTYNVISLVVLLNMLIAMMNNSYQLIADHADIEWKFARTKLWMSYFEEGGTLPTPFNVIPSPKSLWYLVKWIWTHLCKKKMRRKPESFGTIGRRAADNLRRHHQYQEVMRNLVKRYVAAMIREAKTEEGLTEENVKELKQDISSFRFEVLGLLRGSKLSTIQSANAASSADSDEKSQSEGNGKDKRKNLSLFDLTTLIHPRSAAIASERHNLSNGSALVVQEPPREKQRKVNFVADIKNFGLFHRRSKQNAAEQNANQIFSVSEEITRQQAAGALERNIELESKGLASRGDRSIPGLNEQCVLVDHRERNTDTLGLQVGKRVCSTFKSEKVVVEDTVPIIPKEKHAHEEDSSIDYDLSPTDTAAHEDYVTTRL

[2] = target: Delta-type opioid receptor (Homo sapiens, UniProt P41143); test: Counterscreen for agonists of heterodimerization of the mu 1 (OPRM1) and delta 1 (OPRD1) opioid receptors: Luminescence-based cell-based high throughput dose response assay to identify agonists of OPRD1 homodimerization. [Related pubchem assays (depositor defined):AID504326, AID504355, AID504692, AID504904, AID504905]; type: functional
[3] = target: Mu-type opioid receptor (Homo sapiens, UniProt P35372); test: Counterscreen for agonists of heterodimerization of the mu 1 (OPRM1) and delta 1 (OPRD1) opioid receptors: Luminescence-based cell-based high throughput dose response assay to identify agonists of OPRM1 homodimerization.; type: functional;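 also: U2OS cells expressing OPRM1 and beta-arrestin as split beta-galactosidase partners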
[4] = target: 5-hydroxytryptamine receptor 5A (Homo sapiens, UniProt P47898); test: Counterscreen for agonists of OPRM1-OPRD1 heterodimerization: luminescence-based cell-based high throughput dose response assay to identify agonists of 5-hydroxytryptamine (serotonin) 5A receptor (HTR5A). [Related pubchem assays (depositor defined):AID504326, AID504355, AID504692, AID504904, AID504905]; type: functional
[5] = tested on: HEK293; test: inhibition of NOD1-driven NF-kB reporter – cell-based, luminescence, uHTS, primary screen (AID 1578); type: functional; conditions: Homo sapiens
[6] = tested on: HEK293; test: cells; type: functional, cell-based; conditions: Homo sapiens
[7] = tested on: HEK293; test: cells; type: functional, cell-based; conditions: Homo sapiens; remark: listed apart in the source
[8] = tested on: HEK293; test: NOD2 signaling inhibitors in MDP-stimulated cells, cell-based, uHTS, luminescence (AID 2001); type: functional; conditions: Homo sapiens
[9] = target: Nonstructural protein 1 (Influenza A virus, UniProt Q194T2); type: functional, Influenza A virus (A/California/07/2009(H1N1))
[10] = target: Trypsin (Sus scrofa, UniProt P00761); test: trypsin protease activity blockade – biochemical, quenched peptide fluorescence, cherry-pick, selectivity assay for Rce1 protease inhibitor project, dose response (AID 488789)
[11] = target: T2, CAAX prenyl protease 2 (Saccharomyces cerevisiae S288c, UniProt Q03530); type: biochemical
T2 sequence (Q03530 whole entry): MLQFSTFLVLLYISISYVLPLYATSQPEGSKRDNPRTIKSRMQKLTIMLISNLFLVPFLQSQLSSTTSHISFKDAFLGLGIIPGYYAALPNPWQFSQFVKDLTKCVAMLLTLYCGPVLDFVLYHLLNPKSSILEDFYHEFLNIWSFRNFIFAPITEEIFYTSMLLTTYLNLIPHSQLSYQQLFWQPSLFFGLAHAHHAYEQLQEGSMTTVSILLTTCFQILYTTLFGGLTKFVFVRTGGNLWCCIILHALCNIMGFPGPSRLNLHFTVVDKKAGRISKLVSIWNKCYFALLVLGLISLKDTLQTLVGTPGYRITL

[12] = target: CAAX prenyl protease 1 (Saccharomyces cerevisiae S288c, UniProt P47154); test: yeast CAAX protease Ste24 inhibition – biochemical, S. cerevisiae, plate reader, cherry-pick, dose response (AID 488815)
[13] = target: CAAX prenyl protease 2 (Homo sapiens, UniProt Q9Y256); test: inhibition of Ras-converting CAAX protease Rce1 – biochemical, yeast membranes, quenched-peptide fluorescence, cherry-pick, dose response (AID 588849)
CAAX prenyl protease 2 (Homo sapiens, UniProt Q9Y256), sequence (Q9Y256 whole entry): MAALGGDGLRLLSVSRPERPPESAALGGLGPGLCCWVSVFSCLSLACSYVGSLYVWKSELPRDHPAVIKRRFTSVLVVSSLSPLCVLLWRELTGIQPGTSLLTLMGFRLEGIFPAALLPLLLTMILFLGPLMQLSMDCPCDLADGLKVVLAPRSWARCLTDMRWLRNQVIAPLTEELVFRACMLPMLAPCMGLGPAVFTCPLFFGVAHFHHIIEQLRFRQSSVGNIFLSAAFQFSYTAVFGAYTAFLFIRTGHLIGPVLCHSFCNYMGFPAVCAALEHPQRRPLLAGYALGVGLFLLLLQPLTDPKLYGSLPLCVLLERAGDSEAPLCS

Delta-type opioid receptor, sequence (P41143 whole entry): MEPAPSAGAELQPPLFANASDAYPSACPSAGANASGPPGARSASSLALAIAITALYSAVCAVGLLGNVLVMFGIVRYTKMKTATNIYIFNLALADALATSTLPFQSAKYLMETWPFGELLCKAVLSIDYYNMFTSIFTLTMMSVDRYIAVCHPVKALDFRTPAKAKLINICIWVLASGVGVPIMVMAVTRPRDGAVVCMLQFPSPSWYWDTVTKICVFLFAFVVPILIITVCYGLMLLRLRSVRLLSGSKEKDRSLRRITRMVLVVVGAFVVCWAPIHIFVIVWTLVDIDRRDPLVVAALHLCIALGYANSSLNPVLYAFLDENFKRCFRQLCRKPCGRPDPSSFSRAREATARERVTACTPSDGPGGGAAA
Mu-type opioid receptor, sequence (P35372 whole entry): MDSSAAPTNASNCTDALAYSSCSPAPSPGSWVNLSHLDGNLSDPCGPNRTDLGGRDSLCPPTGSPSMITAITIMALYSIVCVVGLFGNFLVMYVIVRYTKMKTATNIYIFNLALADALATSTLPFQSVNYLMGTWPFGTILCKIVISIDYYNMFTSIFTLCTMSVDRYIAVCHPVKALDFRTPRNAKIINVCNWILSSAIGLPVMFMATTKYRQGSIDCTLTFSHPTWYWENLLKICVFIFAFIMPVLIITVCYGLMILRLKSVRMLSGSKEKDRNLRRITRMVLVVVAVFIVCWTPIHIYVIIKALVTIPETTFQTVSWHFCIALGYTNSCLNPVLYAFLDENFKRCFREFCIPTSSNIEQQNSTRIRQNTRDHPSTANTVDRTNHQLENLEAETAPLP
5-hydroxytryptamine receptor 5A, sequence (P47898 whole entry): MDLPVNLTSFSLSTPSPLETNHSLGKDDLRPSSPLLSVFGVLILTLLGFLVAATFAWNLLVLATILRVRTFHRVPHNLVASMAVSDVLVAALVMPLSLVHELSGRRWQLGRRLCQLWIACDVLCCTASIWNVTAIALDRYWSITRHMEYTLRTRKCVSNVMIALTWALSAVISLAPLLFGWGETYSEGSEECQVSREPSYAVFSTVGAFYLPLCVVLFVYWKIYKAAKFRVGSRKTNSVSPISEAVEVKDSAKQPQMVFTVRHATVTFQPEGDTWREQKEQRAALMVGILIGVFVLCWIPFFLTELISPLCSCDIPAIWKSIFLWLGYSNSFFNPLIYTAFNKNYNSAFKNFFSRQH
CAAX prenyl protease 1, sequence (P47154 whole entry): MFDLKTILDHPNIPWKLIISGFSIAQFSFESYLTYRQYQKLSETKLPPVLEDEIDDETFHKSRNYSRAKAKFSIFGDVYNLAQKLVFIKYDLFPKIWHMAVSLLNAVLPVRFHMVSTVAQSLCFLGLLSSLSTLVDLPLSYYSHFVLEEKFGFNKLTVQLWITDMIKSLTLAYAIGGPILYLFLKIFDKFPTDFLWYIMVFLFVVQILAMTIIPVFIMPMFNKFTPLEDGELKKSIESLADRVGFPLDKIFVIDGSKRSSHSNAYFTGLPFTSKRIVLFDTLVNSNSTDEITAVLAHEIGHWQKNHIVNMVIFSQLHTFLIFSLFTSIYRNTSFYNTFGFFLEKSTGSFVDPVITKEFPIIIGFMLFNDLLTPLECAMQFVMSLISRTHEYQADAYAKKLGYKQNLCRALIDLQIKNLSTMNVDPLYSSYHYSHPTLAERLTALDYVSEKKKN
Trypsin, sequence (P00761 whole entry): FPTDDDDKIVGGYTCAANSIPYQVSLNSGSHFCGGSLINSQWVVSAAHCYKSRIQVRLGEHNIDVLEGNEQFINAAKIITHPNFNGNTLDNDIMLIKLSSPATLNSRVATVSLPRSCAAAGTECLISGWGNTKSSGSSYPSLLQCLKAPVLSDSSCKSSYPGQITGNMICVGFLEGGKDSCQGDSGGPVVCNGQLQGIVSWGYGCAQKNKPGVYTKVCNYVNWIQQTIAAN
Nonstructural protein 1, sequence (Q194T2 whole entry): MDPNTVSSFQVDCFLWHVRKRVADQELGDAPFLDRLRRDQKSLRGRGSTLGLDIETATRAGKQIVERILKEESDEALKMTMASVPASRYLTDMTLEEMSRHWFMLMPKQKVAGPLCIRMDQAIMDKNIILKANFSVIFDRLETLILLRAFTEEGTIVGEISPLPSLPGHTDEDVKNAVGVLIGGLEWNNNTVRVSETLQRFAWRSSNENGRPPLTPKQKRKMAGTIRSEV

For `Cc1cccc(NC(S)=NCC(c2cccnc2)N(C)C)c1C` (stereo unspecified), the EC50 [1] was 0.0067 µM (active), the EC50 [2] was 17.8 µM (inactive) and the EC50 [3] was 2.75 µM (active). For the same compound, the EC50 [4] was > 92.5 µM (inactive).
In the case of `CN1C=C/C(=C/c2ccc3ccccc3[n+]2C)c2ccccc21`, the EC50 [5] is reported as 5.15 µM (active), the IC50 [6] is reported as 8.56 µM (active) and the IC50 [7] is reported as 18 µM (active). For the same compound, the IC50 [8] was 7.8 µM (active) and the IC50 [9] was 16.4 µM (active).
In the case of `COC(=O)C(Cc1cccc(C)n1)(c1ccccc1)c1ccccc1`, the EC50 [2] is reported as > 92.5 µM (inactive), the EC50 [3] is reported as > 92.5 µM (inactive) and the EC50 [4] is reported as > 92.5 µM (inactive).
In the case of `COC(=O)c1sc2cnccc2c1N`, the AC50 [10] is reported as 9.63 µM (active), the AC50 [11] is reported as 14 µM (active) and the AC50 [12] is reported as 4.39 µM (active). For the same compound, the AC50 [13] was 2.57 µM (active).

Reference: ChEMBL document CHEMBL1201862, “PubChem BioAssay data set” (2004)
